From patent US8394431B2, “Composition of extracts from plants and the use thereof in prophylaxis or treatment of metabolism disorder of blood lipid” (priority 2008, dated 2013)

How the values were obtained:
[1] = tested on: Dietary hyperlipidemia rats; experiment: Blood lipid of dietary hyperlipemia model in rats; type: in vivo, SD rats; settings: serum, dose 3 mg/kg, 8 weeks; for HDL-C: high lipid control 0.71 ± 0.30; for LDL-C: high lipid control 1.43 ± 0.30; for TC: high lipid control 3.32 ± 0.49
Procedure: Observe the effects of different doses of FTZEC on the serum TC, TG, LDL-C, and HDL-C of hyperlipemia rats.
In addition to ordinary feed in control group, other groups were given high fat emulsion in 10 ml/kg every morning by gavage beside the ordinary feed, and given corresponding drugs 4 hours after feeding, in which the normal group and the model groups were given equal amount of normal saline, administrated for continuous 8 weeks. These animals were fasted for 1 d, when water was given, in the next morning, the blood was taken from orbital veniplex after the last administration, centrifuged and separated the serum to test the TC, TG, HDL-C, LDL-C respectively.

[2] = tested on: L-O2 Lipoprotein Lipase of Liver Cells (LPL); experiment: LPL activity in L-O2 hepatocytes (colorimetric kit); type: cell-based, human; settings: 50.0 μg/ml, normal 12.63 ± 0.67
Procedure: The L-O2 human normal liver cells were cultured in routine way, various concentrations of FTZCE were respectively added after cells fusion, continuously cultured the cells for a certain time followed by collecting cells to prepare cell homogenates. Using LPL/HL detection kit (Nanjing Jiancheng Biotechnology Research Institute), the LPL/HL activity was detected by colorimetric method to research the effects of various composition of extracts from plants conbination on LPL activity and compare the enzyme activity of hepatocyte LPL/HL under the action of different concentrations of FTZEC. The gene expressions of hepatocyte LPL/HL were determined by RT-PCR method to observe the affects of FTZEC on the hepatocyte LPL/HL gene expression.

[3] = tested on: Dietary hyperlipidemia New-Zealand female rabbits; experiment: Lipid metabolism of hyperlipidemia New-Zealand female rabbit model; type: in vivo; settings: hyperlipidemia unsexed female rabbits, dose 3 mg/kg, gavage, 12 weeks; for HDL-C: model 0.871 ± 0.30; for TG: model 3.98 ± 0.79; for LDL-C: model 11.63 ± 2.30; for TC: model 33.92 ± 3.49; for Ox-LDL: plasma ELISA, model 1.63 ± 0.30
From the text: Purebred New Zealand female rabbits were unsexed and fed with 0.5% cholesterol diet, and intravenously injected with bovine serum albumin to establish the model. The experimental animals were 49 New Zealand Angora purebred female rabbits, 1.8-2.2 kg, 3-4 months old which were provided by Guangdong Province Experimental Animal Center. […] In the sham-operated group, the sham operation was confirmed (cutting a small piece of fat tissues around the ovary), without removing the ovaries. The rabbits were given ordinary commercial feed (120-150 g/d) after surgery. […] In the compound Fufang tiaozhi FTZ group (equal to five times of clinical adult daily dose) and other administration groups, the rabbits were administrated with drugs by gavage. The control group and the model group were fed and administrated by gavage with same volume of normal saline. The body weights were examined at 12 weeks of the experiment. 2 ml blood was taken by the ear artery for blood lipid measurement. The rabbits were fasted for 16 h before each blood sampling. […] The total cholesterol, triglyceride, HDLC and LDLC were detected by automatic biochemical analyzer and the steps were carried out according to the kit instructions. The OX-LDL in plasma was measured by ELISA, according to kit instructions.

[4] = tested on: hypercholesterolemic patients; experiment: Clinical validation in hyperlipemia patients: blood lipids and efficacy rate; type: in vivo, human; settings: patients n = 30, one tablet twice a day, 2 months
Procedure: 60 cases with hyperlipemia treated by FTZEC were analyzed, using the tablets obtained in Experiment 1. The experiment was confirmed according to Principles for Clinical Study of New Chinese Medicines in hyperlipemia, Ministry of Health of the People's Republic of China. 60 cases were in-patients or out-patients with hyperlipidemia diagnosed according to diagnostic criteria (1985), of which 40 cases were outpatients and 20 cases were in-patients; the patients were randomly divided into two groups, the treatment group and the control group. […] All patients accepted hyperlipidemia education, diet control, and regular exercise. […] 5.2 Efficiency standard of blood lipid Clinical control: the experimental examination returned to normal. Marked effective: the blood lipid detection achieved any one of the following indexes: […] Effective: the blood lipid detection achieved any one of the following indexes: […] Note: when determine the efficacy of the complicated hyperlipidemia, if the two indicators were not consistent, the lower efficacy was determined as the final result.

HMG-CoA reductase = molecular target: T1, HMG-CoA reductase (Rattus norvegicus, UniProt P51639); experiment: Inhibition of HMG-CoA reductase activity (rat liver cell microsomes); type: biochemical, rats
T1 construct: The rats liver cells microsomes were prepared into HMG-CoA reductase solution; from tissue; host or cells: rat liver cell microsomes
T1 sequence (P51639 1-887): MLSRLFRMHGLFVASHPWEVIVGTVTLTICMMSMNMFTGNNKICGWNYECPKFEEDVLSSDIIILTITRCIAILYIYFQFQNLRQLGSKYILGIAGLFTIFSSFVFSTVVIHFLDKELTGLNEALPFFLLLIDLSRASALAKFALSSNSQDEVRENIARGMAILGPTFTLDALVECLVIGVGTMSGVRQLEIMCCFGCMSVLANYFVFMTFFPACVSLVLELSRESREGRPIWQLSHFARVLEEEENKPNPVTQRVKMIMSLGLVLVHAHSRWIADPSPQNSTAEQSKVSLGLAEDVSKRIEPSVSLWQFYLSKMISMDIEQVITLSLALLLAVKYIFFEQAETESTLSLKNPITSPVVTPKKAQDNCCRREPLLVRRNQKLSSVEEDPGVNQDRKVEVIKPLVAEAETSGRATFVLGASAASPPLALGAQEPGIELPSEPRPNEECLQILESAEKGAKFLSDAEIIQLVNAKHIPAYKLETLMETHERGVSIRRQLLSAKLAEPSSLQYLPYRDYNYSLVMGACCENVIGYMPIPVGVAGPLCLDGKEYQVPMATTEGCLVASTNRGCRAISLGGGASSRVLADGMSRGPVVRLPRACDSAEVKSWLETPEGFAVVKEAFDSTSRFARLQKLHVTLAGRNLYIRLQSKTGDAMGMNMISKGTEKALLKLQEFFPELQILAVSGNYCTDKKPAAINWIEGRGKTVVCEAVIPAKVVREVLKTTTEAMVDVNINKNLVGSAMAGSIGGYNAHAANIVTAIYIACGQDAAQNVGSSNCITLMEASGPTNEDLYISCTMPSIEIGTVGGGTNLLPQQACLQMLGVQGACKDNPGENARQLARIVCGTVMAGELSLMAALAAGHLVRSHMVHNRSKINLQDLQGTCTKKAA
Procedure: Test the effects of various FTZEC conbination in vitro experiment on inhibiting HMGCoA reductase activity and calculate the IC50 of the composition of extracts from plants on inhibition of HMGCoA reductase and compare with pravastatin.
The rats liver cells microsomes were prepared into HMG-CoA reductase solution. The activities of the HMG-CoA reductase were determined by literature method. The enzyme activity in each group was respectively determined to calculate the IC50 (μg/ml) of FTZEC on HMG-CoA reductase activity.

SMILES	HDL-C [1] [mmol/L]	LDL-C [1] [mmol/L]	TC [1] [mmol/L]	LPL activity [2] [g FFA/mL supernatant · h]	HDL-C [3] [mmol/L]	TG [3] [mmol/L]	LDL-C [3] [mmol/L]	TC [3] [mmol/L]	Ox-LDL [3] [mmol/L]	TG ([1]; high lipid control 3.28 ± 0.79) [mmol/L]	Effective Cases [4]	Effective Rate % [4] [%]	Invalid Cases [4]	Invalid Rate % [4] [%]	Marked effective Cases [4]	Marked effective Rate % [4] [%]	Total effective rate % [4] [%]	IC50 (HMG-CoA reductase) [µM]
CC(C)OC(=O)C(C)(C)Oc1ccc(C(=O)c2ccc(Cl)cc2)cc1 [Fenofibrate]	1.22 ± 0.43	0.89 ± 0.42	2.85 ± 0.45	16.95 ± 3.02	1.06 ± 0.26	1.88 ± 0.82	4.99 ± 2.25	19.89 ± 2.62	0.99 ± 0.25									
CC[C@H](C)C(=O)O[C@H]1C[C@@H](C)C=C2C=C[C@H](C)[C@H](CC[C@@H]3C[C@@H](O)CC(=O)O3)[C@H]21 [Lovastatin]	0.96 ± 0.26	0.91 ± 0.25	2.29 ± 0.32							2.08 ± 0.82								
CC[C@H](C)C(=O)O[C@H]1C[C@H](O)C=C2C=C[C@H](C)[C@H](CC[C@@H](O)C[C@@H](O)CC(=O)O)[C@H]21 [Pravastatin]					1.36 ± 0.28	2.08 ± 0.82	10.29 ± 2.27	12.69 ± 3.62	1.29 ± 0.27		15	50.0	4	13.3	11	36.7	86.7	4.36
